Experiment [1] addresses T1, human progesterone receptor-A [PRA] isoform (Homo sapiens, UniProt P06401).
T1 construct: host or cells: insect SF21 cells (baculovirus)
T1 sequence (P06401 1-769 isoform P06401-2): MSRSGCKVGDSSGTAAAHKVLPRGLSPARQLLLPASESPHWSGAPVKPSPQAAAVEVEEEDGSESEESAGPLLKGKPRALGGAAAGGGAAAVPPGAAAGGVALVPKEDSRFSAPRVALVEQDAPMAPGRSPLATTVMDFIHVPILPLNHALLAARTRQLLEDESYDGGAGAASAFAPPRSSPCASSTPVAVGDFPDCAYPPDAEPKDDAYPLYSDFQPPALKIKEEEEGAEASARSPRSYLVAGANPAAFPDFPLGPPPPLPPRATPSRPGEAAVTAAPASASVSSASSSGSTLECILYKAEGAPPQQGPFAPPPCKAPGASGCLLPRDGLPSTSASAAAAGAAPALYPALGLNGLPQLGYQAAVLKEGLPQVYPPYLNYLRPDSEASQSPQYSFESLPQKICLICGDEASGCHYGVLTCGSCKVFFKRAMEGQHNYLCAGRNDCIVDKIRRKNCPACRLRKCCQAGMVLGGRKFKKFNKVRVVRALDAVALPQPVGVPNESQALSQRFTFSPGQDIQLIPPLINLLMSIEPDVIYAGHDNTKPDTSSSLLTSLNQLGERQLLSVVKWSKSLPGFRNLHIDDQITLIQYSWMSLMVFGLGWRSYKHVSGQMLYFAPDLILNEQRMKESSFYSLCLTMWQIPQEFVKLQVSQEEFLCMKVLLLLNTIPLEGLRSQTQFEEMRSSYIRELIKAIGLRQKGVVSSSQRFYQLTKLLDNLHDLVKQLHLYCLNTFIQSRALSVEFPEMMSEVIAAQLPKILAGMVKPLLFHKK
Put plainly: Radioligand binding with human progesterone receptor cytosol ([3H]-progesterone competition).
Protocol: Both receptor cDNAs were cloned into baculovirus expression vectors and expressed in insect SF21 cells.
Stock solutions (32 mM) of compounds were prepared in dimethylsulfoxide (DMSO), and 50× solutions of test compounds were prepared from the 32 mM solution with a 50:50 mixture of DMSO/ethanol. The 50× solution was then diluted with binding buffer that contained 10 mM Tri-HCl, 1.5 mM EDTA, 10% glycerol, 1 mM DTT, 20 mM sodium molybdate, pH 7.5 @4° C. 1% DMSO/ethanol was present in the binding assay.
For PR binding assays, [^3H]Prog (˜36,000 dpm (˜0.8 nM)), PRA cytosol (˜40 μg protein), test compounds and binding buffer were mixed in a total volume of 200 μL and incubated at 4° C at overnight in a plate shaker. Specific binding was defined as the difference between binding of [^3H]Prog in the absence and in the presence of 3 μM unlabelled Prog.
After an overnight incubation, 50 μL of hydroxyapatite (25% weight/volume) slurry were added to each well and plates were incubated for 10 min at 0° C. in a plate shaker. Plates were suctioned with a Millipore vacuum manifold and each well was rinsed with 300 μL of ice-cold binding buffer. A 250 μL aliquot of Packard Microscint-20 was added to each well and the wells were shaken at room temperature for 20 minutes. The amount of radioactivity was determined with a Packard TopCount plate reader.
The Ki of test compounds was determined using the Cheng-Prusoff equation Ki=IC50/(1+[L*]/[KL]) where L* is the concentration of radioligand and KL is the dissociation constant of the radioligand determined from saturation analysis.

Experiment [2] concerns the target T2, human glucocorticoid receptor-α [GRX] isoform (Homo sapiens, UniProt P04150).
T2 construct: host or cells: insect SF21 cells (baculovirus)
T2 sequence (P04150 1-777): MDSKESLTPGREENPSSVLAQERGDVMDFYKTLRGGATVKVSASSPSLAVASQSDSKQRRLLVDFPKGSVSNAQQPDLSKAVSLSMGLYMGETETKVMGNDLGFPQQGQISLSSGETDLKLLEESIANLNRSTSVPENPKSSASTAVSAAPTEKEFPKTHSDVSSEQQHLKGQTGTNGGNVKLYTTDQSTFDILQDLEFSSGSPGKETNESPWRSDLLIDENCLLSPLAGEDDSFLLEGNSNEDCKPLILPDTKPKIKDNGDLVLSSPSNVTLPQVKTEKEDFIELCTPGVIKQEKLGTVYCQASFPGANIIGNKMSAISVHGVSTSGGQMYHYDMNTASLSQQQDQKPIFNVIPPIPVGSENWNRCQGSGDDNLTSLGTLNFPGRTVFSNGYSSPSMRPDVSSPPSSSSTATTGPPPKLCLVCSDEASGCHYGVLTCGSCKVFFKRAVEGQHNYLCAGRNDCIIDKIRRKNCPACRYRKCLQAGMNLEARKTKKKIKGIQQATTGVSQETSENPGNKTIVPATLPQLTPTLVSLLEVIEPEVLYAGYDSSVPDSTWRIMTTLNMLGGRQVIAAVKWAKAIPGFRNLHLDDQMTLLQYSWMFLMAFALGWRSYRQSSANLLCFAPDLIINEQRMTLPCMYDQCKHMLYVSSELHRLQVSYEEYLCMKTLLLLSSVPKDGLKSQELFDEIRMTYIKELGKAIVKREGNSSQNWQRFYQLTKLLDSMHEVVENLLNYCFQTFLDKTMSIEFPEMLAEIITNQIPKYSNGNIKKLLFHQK
Put plainly: Radioligand binding with human glucocorticoid receptor cytosol ([3H]-dexamethasone competition).

Where [3] appears, read: PRA cytosol expressed in insect SF21 cells, [3H]Prog ~0.8 nM, 4° C. overnight, Ki by Cheng-Prusoff, KL ~4.5 nM, read-out: Ki (nM) PR.
[4] abbreviates: GRX cytosol expressed in insect SF21 cells, [3H]-Dex ~0.9 nM, 4° C. overnight, Ki by Cheng-Prusoff, KL ~[…], read-out: Ki (nM) GR.

Where two headings read alike, the source gives them in different places.

As to `C=CCC1Oc2cccc(OC(F)F)c2-c2ccc3c(c21)C(C)=CC(C)(C)N3` (stereo not drawn) [Example 8, 10-(Difluoromethoxy)-2,5-dihydro-2,2,4-trimethyl-5-(2-propenyl)-1H-[1]benzopyrano[3,4-f]quinoline], the Ki (as a rule, the equilibrium dissociation constant of an inhibitor or competing ligand from its target) came out at 6010 nM in experiment [1] (setting [3]) and 168 nM in experiment [2] (setting [4]).
In the same order, the values of `CCOc1cccc2c1-c1ccc3c(c1C(c1ccccc1)O2)C(C)=CC(C)(C)N3` (stereo not drawn) [Example 9, 10-Ethoxy-2,5-dihydro-2,2,4-trimethyl-5-phenyl-1H-[1]benzopyrano[3,4-f]quinoline] are no less than 10000 nM and 60.5 nM.
`CC(=O)Oc1cccc2c1-c1ccc3c(c1C(c1ccccc1)O2)C(C)=CC(C)(C)N3` (stereo not drawn) [Example 10, 2,5-Dihydro-2,2,4-trimethyl-5-phenyl-1H-[1]benzopyrano[3,4-f]quinoline-10-ol Acetate (Ester)]: the Ki in experiment [1] (setting [3]) was 10900 nM; in experiment [2] (setting [4]), 179 nM.
In the case of `COc1cccc2c1-c1ccc3c(c1C(c1cc(C)cc(Br)c1)O2)C(C)=CC(C)(C)N3` (stereo not drawn) [Example 11, 5-(3-Bromo-5-methylphenyl)-2,5-dihydro-10-methoxy-2,2,4-trimethyl-1H-[1]benzopyrano[3,4-f]quinoline], the results for the Ki in experiment [1] (setting [3]) and in experiment [2] (setting [4]) were 288 nM and 4.4 nM, respectively.
With `COc1cccc2c1-c1ccc3c(c1C(c1cccc(OC(C)=O)c1)O2)C(C)=CC(C)(C)N3` (stereo not drawn) [Example 12, 3-(2,5-Dihydro-10-methoxy-2,2,4-trimethyl-1H-[1]benzopyrano[3,4-f]quinolin-5-yl)phenol, Acetate (Ester)], the Ki is no less than 10000 nM in experiment [1] (setting [3]) and 8.6 nM in experiment [2] (setting [4]).
For the compound `COc1cccc2c1-c1ccc3c(c1C(c1cccc(O)c1)O2)C(C)=CC(C)(C)N3` (stereo not drawn) [Example 13, 3-(2,5-Dihydro-10-methoxy-2,2,4-trimethyl-1H-[1]benzopyrano[3,4-f]quinolin-5-yl)phenol], the Ki in experiment [1] (setting [3]) was no less than 10000 nM; in experiment [2] (setting [4]), 11.1 nM.
With `COc1cccc2c1-c1ccc3c(c1C(c1cccc(OCSC)c1)O2)C(C)=CC(C)(C)N3` (stereo not drawn) [Example 14, 2,5-Dihydro-10-methoxy-2,2,4-trimethyl-5-[[3-(methylthio)methoxy]phenyl]-1H-[1]benzopyrano[3,4-f]quinoline], the Ki is no less than 10000 nM in experiment [1] (setting [3]) and 5.2 nM in experiment [2] (setting [4]).
As for `COc1cccc2c1-c1ccc3c(c1C(c1cccc(OC(=O)N(C)C)c1)O2)C(C)=CC(C)(C)N3` (stereo not drawn) [Example 15, [3-(2,5-Dihydro-10-methoxy-2,2,4-trimethyl-1H-[1]benzopyrano[3,4-f]quinolin-5-yl)phenyl]dimethylcarbamate], the Ki in experiment [1] (Ki (nM) PR) is no less than 10000 nM; in experiment [2] (Ki (nM) GR) it was 2.5 nM.
On to `COc1cccc2c1-c1ccc3c(c1C(c1cc(C)cc(-c4ccco4)c1)O2)C(C)=CC(C)(C)N3` (stereo not drawn) [Example 16, 5-[3-(2-Furanyl)-5-methylphenyl]-2,5-dihydro-10-methoxy-2,2,4-trimethyl-1H-[1]benzopyrano[3,4-f]quinoline], for which the figures for the inhibition constant Ki in experiment [1] (setting [3]) and in experiment [2] (setting [4]) were no less than 10000 nM and 8 nM, respectively.
For `COc1cccc2c1-c1ccc3c(c1C(c1cc(C)cc(N4CCOCC4)c1)O2)C(C)=CC(C)(C)N3` (stereo not drawn) [Example 17, 2,5-Dihydro-10-methoxy-2,2,4-trimethyl-5-[3-methyl-5-(1-morpholinyl)phenyl]-1H-[1]benzopyrano[3,4-f]quinoline], the Ki in experiment [1] (setting [3]) was no less than 10000 nM; in experiment [2] (setting [4]), 39 nM.
In the same order, the values of `COc1cccc2c1-c1ccc3c(c1C(c1cccc(C(F)(F)F)c1)O2)C(C)=CC(C)(C)N3` (stereo not drawn) [Example 21, 2,5-Dihydro-10-methoxy-2,2,4-trimethyl-5-[3-(trifluoromethyl)phenyl]-1H-[1]benzopyrano[3,4-f]quinoline] are 4020 nM and 10.7 nM.
The corresponding values for `COc1ccc(C2Oc3cccc(OC)c3-c3ccc4c(c32)C(C)=CC(C)(C)N4)cc1` (stereo not drawn) [Example 22, 2,5-Dihydro-10-methoxy-5-(4-methoxyphenyl)-2,2,4-trimethyl-1H-[1]benzopyrano[3,4-f]quinoline] are no less than 10000 nM and 6.5 nM.

For the origin of these results see patent US6506766B1 (Abbott Laboratories, priority 1998, dated 2003).
